Measurements: patent US8895032B2, “Dendritic nano-antioxidants” (Central Michigan University, priority 2009, dated 2014)
Values joined by “and” are separate entries in the source; they are usually repeats but may differ in a detail not shown here. Equal entries are not always repeated.

Legend:
[1] = beta-carotene-linoleate assay; type: biochemical; conditions: for % A470 nm: 12 μM, after 180 min incubation at 50° C.; for protection of linoleic acid from oxidation: 50° C., 180 min, 470 nm
From the text: The ability of the dendritic antioxidants 1, 2, and 3 to protect linoleic acid against free radical damage was examined by the beta-carotene-linoleate model (Jayaprakasha, G. K., et al. Food Chem. 2001, 73, 285, incorporated herein by reference in its entirety). In the absence of an antioxidant, hydroperoxides formed from linoleic acid oxidation bleach the highly unsaturated beta-carotene by a free-radical-mediated phenomenon. The bleaching of the reddish-orange color of beta-carotene was monitored at 470 nm in the presence of various concentrations of antioxidant. The % absorbance (corrected for control without antioxidant) was determined at each antioxidant concentration after incubation at 50° C. for 180 min. The % A470 nm values were determined as follows: % A470 nm=[(At(180 min)/At(0 min))×100]−[(Ac(180 min)/Ac(0 min))×100], wherein At(180 min)=absorbance at 470 nm of antioxidant sample incubated at 50° C. for 180 min, At(0 min)=absorbance at 470 nm of antioxidant sample incubated at 50° C. for 0 min, Ac(180 min)=absorbance at 470 nm of control sample (without antioxidant) incubated at 50° C. for 180 min, and Ac(0 min)=absorbance at 470 nm of control sample (without antioxidant) incubated at 50° C. for 0 min. […] In FIG. 24, protection of linoleic acid from oxidation by various antioxidants is shown for compound 1 (□), compounds 2 and 3 (•), quercetin (x), and Trolox (Δ).

DPPH radical assay = experiment: DPPH radical assay
Experimental: The DPPH assay was one of three electron transfer (ET) assays used to determine the antioxidant potential of compound 1 (described in Example 6) in comparison to its monomeric counterpart (syringaldehyde) as well as popular antioxidants. In an ET assay, an antioxidant donates electron(s) to a molecular probe, thus reducing it. From the assay, thermodynamic conversion of antioxidant to antioxidant radical (oxidation) is measured during a fixed time period.
The reduction of DPPH radical was determined for ascorbic acid, Trolox, syringaldehyde, and the compound 1 described in Example 6 as previously reported (Brand-Williams, et al. Lebensm.-Wiss U.-Technol. 1995, 28, 25-30, incorporated herein by reference in its entirety). In the DPPH assay, DPPH• radical was reduced by the antioxidant in methanol (Brand-Williams, et al. Lebensm.-Wiss U.-Technol. 1995, 28, 25-30, incorporated herein by reference in its entirety). […] The DPPH reagent was made in methanol. Antioxidant sample (10 μL) was added to 1.0 mL of reagent and the absorbance was monitored at 515 nm until a plateau was reached. Antioxidant concentrations were 50 μM syringaldehyde, 12.5 μM Trolox and ascorbic acid, and 5 μM compound 1. All samples were made in methanol and run in triplicates at room temperature.
The DPPH• scavenging capacity of each antioxidant was evaluated from the plot of the percentage DPPH• remaining when the kinetics reached a steady state as a function of the molar ratios of antioxidant to DPPH•. […] Using the curve, EC50 (the amount of antioxidant necessary to decrease the initial DPPH• concentration by 50%), antiradical power (1/EC50, ability to reduce the DPPH•), reaction stoichiometry (EC50×2, the concentration of antioxidant required to reduce 100% of DPPH• radical), and the number of reduced DPPH• per antioxidant molecule (1/stoichiometry) for each antioxidant were calculated as previously described (Brand-Williams, et al. Lebensm.-Wiss U.-Technol. 1995, 28, 25-30, incorporated herein by reference in its entirety) and are depicted in Table 1.
Antioxidant capacity of the compounds was assessed by the DPPH assay (Brand-Williams, et al. Lebensm. Wiss. Technol. 1995, 28, 25, incorporated herein by reference in its entirety). […] In FIG. 22, control with methanol is (X, dashed); compound 1 is (□), compound 2 is (•), compound 3 is (◯), and Trolox (Δ). All antioxidant concentrations were 5 μM.
The free-radical scavenging ability of the antioxidants was evaluated by the DPPH assay, as described above in Example 7.

plasmid DNA pBR 322 = experiment: Protection of plasmid DNA from AAPH damage (agarose electrophoresis); type: biochemical; conditions: 10 mM AAPH, 37° C., 4 h
Experimental: The effectiveness of the three compounds to protect DNA from AAPH damage was also determined. The plasmid DNA pBR 322 was incubated with AAPH (final concentration 10 mM) at 37° C. for 4 h with or without antioxidants (final concentrations, 0.35-45 μM), after which the samples were subjected to agarose electrophoresis (Sakihama, Y., et al. Toxicology 2002, 177, 67, incorporated herein by reference in its entirety). […] In the absence of AAPH, pBR 322 was mostly in its supercoiled (S) form (small amount of open circular, O, form was also visible, lane 1 FIG. 25). After reaction with AAPH, the DNA was transformed almost entirely into its open circular form (lane 2, FIG. 25). […] No protection was obtained for both compound 1 and quercetin below 5 μM (lanes 7-10, FIG. 25). […] Compound 3 as well as Trolox were ineffective at all concentrations used in the experiment (0.35-45 μM).
Protection of DNA from free radical damage by the antioxidant dendrimers (compounds 4, 5, and 1) was also evaluated. Plasmid DNA (pBR 322) samples, were incubated with AAPH (final concentration 10 mM) at 37° C. for 4 h with antioxidants (final concentrations, 0.35-45 μM) and subjected to agarose electrophoresis. […] The native DNA was mostly in its supercoiled (S) form (small amount of open circular, O, form was also visible, lane 1, FIG. 31). In the presence of AAPH, the DNA was transformed almost entirely into its O form (lane 2, FIG. 31). […] Negligible DNA protection was afforded by all three dendrimers at ≦2.5 μM (lanes 7-10, FIG. 31). Under similar conditions, Trolox as well as the starting materials for dendrimer synthesis were ineffective at all concentrations.

Human LDL = experiment: Protection of LDL from AAPH oxidation (agarose gel electrophoresis); type: biochemical; conditions: 10 mM AAPH, 18 h, 37° C.
From the text: The antioxidant activity of compounds 1, 2, and 3 towards biomolecules was examined by studying their ability to protect LDL, fatty acid, and DNA from free radicals. For LDL, AAPH was used to induce free radical damage. AAPH was used instead of copper (Cu^2) ion for LDL oxidation so that the free radical scavenging activity of the antioxidants could be measured without any pro-oxidant interference caused by metal ions (Salah, N. et al. Arch. Biochem. Biophys. 1995, 322, 339, incorporated herein by reference in its entirety). All solutions were made in ultra-pure water.
Protection of LDL from AAPH free radicals by the antioxidant decreased the anodic shift in a dose-dependent manner (FIG. 23). […] The increased hydrophobicity of compound 3 may be partly responsible for its improved LDL protection over compound 2.
The antioxidant activity of the antioxidants towards biomolecules was examined by studying their ability to protect LDL, lysozyme, and DNA from free radicals. For LDL, AAPH was used to induce free radical damage. AAPH was used instead of Cu^2+ for LDL oxidation so that the free radical scavenging activity of the antioxidants could be measured without any pro-oxidant interference caused by metal ions. The oxidation of human low-density lipoprotein was used as a model for evaluating the ability of the G1 dendrimers as chain-breaking antioxidants for lipid. Oxidation of LDL leads to changes in both the lipid and the protein moieties of the lipoprotein particle. Lipid peroxidation in LDL has been evaluated by a variety of methods. Due to the complexity of events that occur in lipoprotein oxidation, the electrophoretic migration pattern of oxidized LDL is one of the best methods to evaluate the extent of lipoprotein oxidation. LDL was incubated with 20 mM AAPH and increasing concentrations of the G1 dendrimers (0-37 μM in PBS) for 21 h at 37° C. The mixture was then subjected to agarose gel electrophoresis using the Ciba Corning Clinical Electrophoresis System. The agarose gel was stained with Fat Red 7B. In FIG. 30A (top), lane 1 is native LDL, and lanes 2-8 are AAPH-oxidized LDL with 0, 37, 18.5, 9, 4.5, 2 and 1 μM compound 4, respectively. In FIG. 30B (bottom), lane 1 is native LDL, and lanes 2-8 are AAPH-oxidized LDL with 0, 37, 18.5, 9, 4.5, 2 and 1 μM quercetin or Trolox, respectively.

[2] = FRAP assay (reduction of Fe(III) to Fe(II)); type: biochemical; parameters: Slope of ΔA593 versus concentration: unit not given here; conditions: for Slope of ΔA593 versus concentration: 37° C.
Experimental: The FRAP assay was performed as previously described (Pulido, et al. J. Agric. Food Chem. 2000, 48, 3396-3402, incorporated herein by reference in its entirety). In the FRAP assay, ferric was reduced by the antioxidant to ferrous via electron transfer (Benzie et al., Anal. Biochem. 1996, 239, 70-76, incorporated herein by reference in its entirety). This assay measured the redox potential of an antioxidant which is used as an estimate of antioxidant efficiency and expressed as a FRAP value. […] The compound 1 as well as the other antioxidants was dissolved in methanol. […] Reaction kinetics of the compound 1 and other antioxidants were obtained by plotting the change in slopes at various times and are shown in FIG. 18. […] This time-dependent increase in absorbance was previously reported (Pulido, et al. J. Agric. Food Chem. 2000, 48, 3396-3402, incorporated herein by reference in its entirety) and was especially significant with polyphenolic compounds. […] However, the FRAP value increased with time, reaching 2.5 in 60 min. […] J. Agric. Food Chem. 2000, 48, 3396-3402, incorporated herein by reference in its entirety). […] EC1 values, and therefore ferric reducing ability, were lower at longer reaction times as expected from the kinetic behavior of the antioxidants (Pulido, et al. J. Agric. Food Chem. 2000, 48, 3396-3402, incorporated herein by reference in its entirety).

[3] = ABTS radical cation decolorization assay; type: biochemical
From the text: We have tested AO activity of G1 (13) using ABTS as a radical source using a previously reported spectroscopic assay. The AO activity of the G1 (13) was compared to those of syringaldehyde, gallic acid, and vitamin C. If the phenolic OH group is the radical scavenging site, the expected AO activity of the G1 (13) should be 4 fold higher than that of syringaldehyde and 1.3 fold higher than that of gallic acid (which has three phenolic OH groups).
ABTS radical cation decolorization assay was used as previously described (Ozgen, et al. J. Agric. Food Chem. 2006, 54, 1151-1157, incorporated herein by reference in its entirety). Like the DPPH assay, this was also a decolorization assay and measured absorbance decrease at 734 nm as the ABTS radical (ABTS•+) is quenched by the antioxidant. The solvent used for the assay was ethanol. ABTS reagent was added to 1.0 mL solvent in a cuvet to bring the absorbance to 0.7. A 10 μL sample of antioxidant was then added, mixed, and the absorbance monitored at 734 nm for 6 min. Antioxidant concentrations were 14.4 μM Trolox, 11.4 μM ascorbic acid, 15.4 μM syringaldehyde, and 3 μM compound 1. The % decrease in absorbance at 6 min was plotted against antioxidant concentrations. The gradient of the line obtained by linear regression for a given antioxidant was divided by that obtained for Trolox to yield Trolox equivalent antioxidant (TEAC) values. All samples were made in ethanol and run in triplicates and at room temperature.

Structure (SMILES): NCc1ccc(CN)cc1 [4-aminomethylbenzylamine]
- % A470 nm [1]: 16%
- quenching of DDPH• (DPPH radical assay; 40 μM final concentration in cuvet): 6%

Structure (SMILES): COc1cc(CN(Cc2ccc(CN(Cc3ccc(O)c(OC)c3)Cc3ccc(O)c(OC)c3)cc2)Cc2ccc(O)c(OC)c2)ccc1O [Compound 2]
- concentration at which some DNA protection was observed (plasmid DNA pBR 322): ≥ 45 µM
- protection of linoleic acid from oxidation [1]: about twice weaker than compound 1

Structure (SMILES): COc1cc(CN(Cc2ccc(CN(Cc3cc(I)c(O)c(OC)c3)Cc3cc(I)c(O)c(OC)c3)cc2)Cc2cc(I)c(O)c(OC)c2)cc(I)c1O [Compound 3]
- protection of LDL from AAPH free radicals (anodic migration) (Human LDL): better LDL protection than compound 2
- DNA protection at all concentrations used (plasmid DNA pBR 322; 0.35-45 μM): ineffective
- protection of linoleic acid from oxidation [1]: about twice weaker than compound 1

Structure (SMILES): COc1cc(C=O)cc(OC)c1O [Syringaldehyde]
- Antioxidant Capacity Relative to Trolox, FRAP 5 min ([2]; 5 min): 2.3
- EC1 (concentration with ferric-TPTZ reducing ability equivalent to 1 mM FeSO4.7H2O) ([2]; 5 min): 194 µM
- FRAP value relative to Fe(II) ([2]; 5 min): 5.1
- FRAP value relative to Fe(II) ([2]; 15 min): 6.7
- FRAP value relative to Fe(II) ([2]; 30 min): 8.4
- Antioxidant Capacity Relative to Trolox, FRAP 60 min ([2]; 60 min): 4 and 4.2
- EC1 (concentration with ferric-TPTZ reducing ability equivalent to 1 mM FeSO4.7H2O) ([2]; 60 min): 108 µM
- FRAP value relative to Fe(II) ([2]; 60 min): 9.2
- Slope of ΔA593 versus concentration ([2]; Reaction time 5 min): 0.062
- Slope of ΔA593 versus concentration ([2]; Reaction time 15 min): 0.081
- Slope of ΔA593 versus concentration ([2]; Reaction time 30 min): 0.101
- Slope of ΔA593 versus concentration ([2]; Reaction time 60 min): 0.111
- % A470 nm [1]: 12%
- Antioxidant Capacity Relative to Trolox, ABTS [3]: 0.98
- IC50 ([3]; final concentration in the cuvet, read-out: concentration at which 50% inhibition of ABTS•+ was observed): ~11 µM
- Slope of % decrease in absorbance at 6 min versus antioxidant concentration ([3]; linear regression, concentration in μM): 3.9
- TEAC ([3]; slope divided by that of Trolox, % decrease in A734 at 6 min, ethanol): 0.98
- # of DDPH• reduced per antioxidant molecule (1/stoichiometry) (DPPH radical assay): 0.33
- Antioxidant Capacity Relative to Trolox, DPPH (DPPH radical assay): 0.18
- DPPH assay, times weaker than Trolox (DPPH radical assay): 5.6 times
- DPPH• remaining in one minute (DPPH radical assay; 50 μM syringaldehyde): 96%
- time to reach plateau / steady state with DPPH• (DPPH radical assay; 50 μM syringaldehyde, 12.5 μM Trolox and ascorbic acid, 5 μM compound 1, methanol, room temperature, 515 nm): approximately 45 min
